{
  "source": "PubChem BioAssay (NCI)",
  "assay_in_all_cases": "NCI anticancer screen, dose series, 48 h",
  "key": {"786-0 renal": {"tested_on": "786-0 renal"}, "A498 renal": {"tested_on": "A498 renal"}, "A549 NSCLC": {"tested_on": "A549 NSCLC"}, "ACHN renal": {"tested_on": "ACHN renal"}, "BT-549 breast": {"tested_on": "BT-549 breast"}, "CAKI-1 renal": {"tested_on": "CAKI-1 renal"}, "CCRF-CEM leukemia": {"tested_on": "CCRF-CEM leukemia"}, "COLO 205 colon": {"tested_on": "COLO 205 colon"}, "DU-145 prostate": {"tested_on": "DU-145 prostate"}, "EKVX NSCLC": {"tested_on": "EKVX NSCLC"}, "HCC-2998 colon": {"tested_on": "HCC-2998 colon"}, "HCT-116 colon": {"tested_on": "HCT-116 colon"}, "HCT-15 colon": {"tested_on": "HCT-15 colon"}, "HL-60(TB) leukemia": {"tested_on": "HL-60(TB) leukemia"}, "HOP-62 NSCLC": {"tested_on": "HOP-62 NSCLC"}, "HOP-92 NSCLC": {"tested_on": "HOP-92 NSCLC"}, "HS 578T breast": {"tested_on": "HS 578T breast"}, "HT29 colon": {"tested_on": "HT29 colon"}, "IGROV1 ovarian": {"tested_on": "IGROV1 ovarian"}, "K-562 leukemia": {"tested_on": "K-562 leukemia"}, "KM12 colon": {"tested_on": "KM12 colon"}, "LOX IMVI melanoma": {"tested_on": "LOX IMVI melanoma"}, "M14 melanoma": {"tested_on": "M14 melanoma"}, "MALME-3M melanoma": {"tested_on": "MALME-3M melanoma"}, "MCF7 breast": {"tested_on": "MCF7 breast"}, "MDA-MB-231 breast": {"tested_on": "MDA-MB-231 breast"}, "MDA-MB-435": {"tested_on": "MDA-MB-435"}, "MDA-N": {"tested_on": "MDA-N"}, "MOLT-4 leukemia": {"tested_on": "MOLT-4 leukemia"}, "NCI-H226 lung": {"tested_on": "NCI-H226 lung"}, "NCI-H23 lung": {"tested_on": "NCI-H23 lung"}, "NCI-H460 lung": {"tested_on": "NCI-H460 lung"}, "NCI-H522 lung": {"tested_on": "NCI-H522 lung"}, "NCI/ADR-RES ovarian": {"tested_on": "NCI/ADR-RES ovarian"}, "OVCAR-3 ovarian": {"tested_on": "OVCAR-3 ovarian"}, "OVCAR-4 ovarian": {"tested_on": "OVCAR-4 ovarian"}, "OVCAR-5 ovarian": {"tested_on": "OVCAR-5 ovarian"}, "OVCAR-8 ovarian": {"tested_on": "OVCAR-8 ovarian"}, "PC-3 prostate": {"tested_on": "PC-3 prostate"}, "RPMI-8226 leukemia": {"tested_on": "RPMI-8226 leukemia"}, "RXF 393 renal": {"tested_on": "RXF 393 renal"}, "SF-268 CNS": {"tested_on": "SF-268 CNS"}, "SF-295 CNS": {"tested_on": "SF-295 CNS"}, "SF-539 CNS": {"tested_on": "SF-539 CNS"}, "SK-MEL-2 melanoma": {"tested_on": "SK-MEL-2 melanoma"}, "SK-MEL-28 melanoma": {"tested_on": "SK-MEL-28 melanoma"}, "SK-MEL-5 melanoma": {"tested_on": "SK-MEL-5 melanoma"}, "SK-OV-3 ovarian": {"tested_on": "SK-OV-3 ovarian"}, "SN12C renal": {"tested_on": "SN12C renal"}, "SNB-19 CNS": {"tested_on": "SNB-19 CNS"}, "SNB-75 CNS": {"tested_on": "SNB-75 CNS"}, "SR leukemia": {"tested_on": "SR leukemia"}, "SW-620 colon": {"tested_on": "SW-620 colon"}, "T-47D breast": {"tested_on": "T-47D breast"}, "TK-10 renal": {"tested_on": "TK-10 renal"}, "U251 CNS": {"tested_on": "U251 CNS"}, "UACC-257 melanoma": {"tested_on": "UACC-257 melanoma"}, "UACC-62 melanoma": {"tested_on": "UACC-62 melanoma"}, "UO-31 renal": {"tested_on": "UO-31 renal"}},
  "note": "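Briefly, cells in 96-well plates were exposed to five compound concentrations for 48 h, and endpoints were estimated by linear interpolation. The concentration for full growth arrest is given as TGI.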",
  "data": [
    {"smiles": "S=C1Cc2cc3ccccc3nc2-c2ccccc2N1", "values": [
      {"measurement": "TGI", "setting": "786-0 renal", "result": 28.4, "unit": "µM"},
      {"measurement": "TGI", "setting": "A498 renal", "result": 18.6, "unit": "µM"},
      {"measurement": "TGI", "setting": "A549 NSCLC", "result": "> 64.8", "unit": "µM"},
      {"measurement": "TGI", "setting": "ACHN renal", "result": 41.4, "unit": "µM"},
      {"measurement": "TGI", "setting": "BT-549 breast", "result": "> 59.1", "unit": "µM"},
      {"measurement": "TGI", "setting": "CAKI-1 renal", "result": 54.5, "unit": "µM"},
      {"measurement": "TGI", "setting": "CCRF-CEM leukemia", "result": "> 100", "unit": "µM"},
      {"measurement": "TGI", "setting": "COLO 205 colon", "result": "> 100", "unit": "µM"},
      {"measurement": "TGI", "setting": "DU-145 prostate", "result": "> 100", "unit": "µM"},
      {"measurement": "TGI", "setting": "EKVX NSCLC", "result": 79.2, "unit": "µM"},
      {"measurement": "TGI", "setting": "HCC-2998 colon", "result": 36, "unit": "µM"},
      {"measurement": "TGI", "setting": "HCT-116 colon", "result": 30.8, "unit": "µM"},
      {"measurement": "TGI", "setting": "HCT-15 colon", "result": "> 87.3", "unit": "µM"},
      {"measurement": "TGI", "setting": "HL-60(TB) leukemia", "result": "> 100", "unit": "µM"},
      {"measurement": "TGI", "setting": "HOP-62 NSCLC", "result": 30.7, "unit": "µM"},
      {"measurement": "TGI", "setting": "HOP-92 NSCLC", "result": 20.2, "unit": "µM"},
      {"measurement": "TGI", "setting": "HS 578T breast", "result": "> 63.7", "unit": "µM"},
      {"measurement": "TGI", "setting": "HT29 colon", "result": "> 100", "unit": "µM"},
      {"measurement": "TGI", "setting": "IGROV1 ovarian", "result": 65.1, "unit": "µM"},
      {"measurement": "TGI", "setting": "K-562 leukemia", "result": "> 100", "unit": "µM"},
      {"measurement": "TGI", "setting": "KM12 colon", "result": "> 100", "unit": "µM"},
      {"measurement": "TGI", "setting": "LOX IMVI melanoma", "result": "> 69.8", "unit": "µM"},
      {"measurement": "TGI", "setting": "M14 melanoma", "result": "> 64.2", "unit": "µM"},
      {"measurement": "TGI", "setting": "MALME-3M melanoma", "result": 47.6, "unit": "µM"},
      {"measurement": "TGI", "setting": "MCF7 breast", "result": "> 79", "unit": "µM"},
      {"measurement": "TGI", "setting": "MDA-MB-231 breast", "result": 27, "unit": "µM"},
      {"measurement": "TGI", "setting": "MDA-MB-435", "result": "> 68.2", "unit": "µM"},
      {"measurement": "TGI", "setting": "MDA-N", "result": "> 100", "unit": "µM"},
      {"measurement": "TGI", "setting": "MOLT-4 leukemia", "result": "> 100", "unit": "µM"},
      {"measurement": "TGI", "setting": "NCI-H226 lung", "result": 46.9, "unit": "µM"},
      {"measurement": "TGI", "setting": "NCI-H23 lung", "result": 41.6, "unit": "µM"},
      {"measurement": "TGI", "setting": "NCI-H460 lung", "result": "> 51.2", "unit": "µM"},
      {"measurement": "TGI", "setting": "NCI-H522 lung", "result": 43.1, "unit": "µM"},
      {"measurement": "TGI", "setting": "NCI/ADR-RES ovarian", "result": 29, "unit": "µM"},
      {"measurement": "TGI", "setting": "OVCAR-3 ovarian", "result": 27.9, "unit": "µM"},
      {"measurement": "TGI", "setting": "OVCAR-4 ovarian", "result": "> 40.4", "unit": "µM"},
      {"measurement": "TGI", "setting": "OVCAR-5 ovarian", "result": "> 91.9", "unit": "µM"},
      {"measurement": "TGI", "setting": "OVCAR-8 ovarian", "result": 31.2, "unit": "µM"},
      {"measurement": "TGI", "setting": "PC-3 prostate", "result": 80.7, "unit": "µM"},
      {"measurement": "TGI", "setting": "RPMI-8226 leukemia", "result": "> 100", "unit": "µM"},
      {"measurement": "TGI", "setting": "RXF 393 renal", "result": 24.9, "unit": "µM"},
      {"measurement": "TGI", "setting": "SF-268 CNS", "result": 91.6, "unit": "µM"},
      {"measurement": "TGI", "setting": "SF-295 CNS", "result": 42.2, "unit": "µM"},
      {"measurement": "TGI", "setting": "SF-539 CNS", "result": 29.4, "unit": "µM"},
      {"measurement": "TGI", "setting": "SK-MEL-2 melanoma", "result": 61.8, "unit": "µM"},
      {"measurement": "TGI", "setting": "SK-MEL-28 melanoma", "result": "> 59.1", "unit": "µM"},
      {"measurement": "TGI", "setting": "SK-MEL-5 melanoma", "result": "> 100", "unit": "µM"},
      {"measurement": "TGI", "setting": "SK-OV-3 ovarian", "result": 15.4, "unit": "µM"},
      {"measurement": "TGI", "setting": "SN12C renal", "result": 32.6, "unit": "µM"},
      {"measurement": "TGI", "setting": "SNB-19 CNS", "result": "> 47.4", "unit": "µM"},
      {"measurement": "TGI", "setting": "SNB-75 CNS", "result": 17.5, "unit": "µM"},
      {"measurement": "TGI", "setting": "SR leukemia", "result": "> 100", "unit": "µM"},
      {"measurement": "TGI", "setting": "SW-620 colon", "result": "> 70.4", "unit": "µM"},
      {"measurement": "TGI", "setting": "T-47D breast", "result": 28.7, "unit": "µM"},
      {"measurement": "TGI", "setting": "TK-10 renal", "result": 44.6, "unit": "µM"},
      {"measurement": "TGI", "setting": "U251 CNS", "result": 28.3, "unit": "µM"},
      {"measurement": "TGI", "setting": "UACC-257 melanoma", "result": 65.5, "unit": "µM"},
      {"measurement": "TGI", "setting": "UACC-62 melanoma", "result": 25.7, "unit": "µM"},
      {"measurement": "TGI", "setting": "UO-31 renal", "result": 24.1, "unit": "µM"}
    ]}
  ]
}
